According to US9650360B2, “Anti-mycobacterial drugs against tuberculosis” (priority 2012, dated 2017):

Tested on: Multidrug-Resistant Mycobacterium Tuberculosis (MDR-TB)
Experiment: microbe, parasite or virus in culture
Assay type: cell-based
Settings: read-out: minimum inhibitory concentration (MIC)

Q: Which MIC does the source give for `O=C(/C=C(\O)c1cc(Cc2c(F)cc(F)cc2F)cn(Cc2ccccc2F)c1=O)C(=O)N1CCN(c2cccc3ccccc23)CC1` here?
A: < 1 µg/mL
